Measured values reported in patent US20260250290A1 (BRISTOL-MYERS SQUIBB COMPANY, priority 2023, published 2026).
Where a name gives a salt, the structure may show the parent alone.

Molecular target: T1, SGK1 (Homo sapiens, UniProt O00141)
T1 sequence (O00141 1-431): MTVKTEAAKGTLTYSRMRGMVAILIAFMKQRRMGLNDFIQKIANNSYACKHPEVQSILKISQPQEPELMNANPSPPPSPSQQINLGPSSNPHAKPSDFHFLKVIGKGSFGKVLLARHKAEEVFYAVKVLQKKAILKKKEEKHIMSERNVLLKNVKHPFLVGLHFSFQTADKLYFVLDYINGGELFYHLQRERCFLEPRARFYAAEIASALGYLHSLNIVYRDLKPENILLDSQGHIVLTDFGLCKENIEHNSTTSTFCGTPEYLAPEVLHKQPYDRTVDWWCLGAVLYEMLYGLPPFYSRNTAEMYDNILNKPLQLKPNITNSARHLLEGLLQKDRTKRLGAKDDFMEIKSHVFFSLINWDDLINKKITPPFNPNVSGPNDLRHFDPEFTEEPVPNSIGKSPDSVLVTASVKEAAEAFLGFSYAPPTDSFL
Test: SGK1 inhibition Assay B (Echo mass spectrometry of phosphorylated peptide product)
Assay type: biochemical
Conditions: 60 min at room temperature
Method: 20 μl of 2 nM SGK1 were added in 20 mM Hepes+10 mM MgCl2+0015% Brij-35+4 mM DTT+0.05 mg/ml BSA and the reaction incubated for 60 min at room temperature. The enzymatic reaction was quenched by addition 10 μl of 1% Formic Acid+150 nM Internal Standard: FITC-(Ahx)KKRNRR(pS)VA^—OH (final concentration). The plates are spun down at 3700 RPM for 10 minutes to remove all precipitate. Samples were loaded on to the Sciex Echo Mass Spec attached to a Sciex 6500 equipped with ESI and was used to analyze the phosphorylated peptide product. MRM transition of product and internal standard were monitored at m/z 755 to 937.5 and m/z 757.7 to 941.3 respectively. Peak area of analyte was normalized with internal standard.
Dose response curves were generated to determine the concentration required for inhibiting 50% of the enzyme activity. Compounds were dissolved at 10 mM in dimethylsulfoxide (DMSO) and evaluated at eleven concentrations.

IC50 | Compound
1 nM | COC[C@@H](C)NC1CCC(Oc2nc(C)sc2C(=O)N[C@@H]2CCCN(c3cc(C4=C(C)C(=O)OC4)n4ncnc(N)c34)C2)CC1 (stereo partly drawn) [Example 1008, N-((R)-1-(4-amino-7-(4-methyl-5-oxo-2,5-dihydrofuran-3-y1)pyrrolo[2,1-f][1,2,4]triazin-5-yl)piperidin-3-y1)-4-((4-(((R)-1-methoxypropan-2-yl)amino)cyclohexyl)oxy)-2-methylthiazole-5-carboxamide]
1.1 nM | CNC(=O)c1ccc(-c2cc(N3CCC[C@@H](NC(=O)c4sc(C)nc4O[C@H]4CC[C@@H](N(C)C)CC4)C3)c3c(N)ncnn23)nc1OC [Example 1058, N—((R)-1-(4-amino-7-(6-methoxy-5-(methylcarbamoyl)pyridin-2-yl)pyrrolo[2,1-f][1,2,4]triazin-5-yl)piperidin-3-yl)-4-(((1S,4S)-4-(dimethylamino)cyclohexyl)oxy)-2-methylthiazole-5-carboxamide]
1 nM | CN(C)C1CC2(CC(Oc3cc(Cl)sc3C(=O)N[C@@H]3CCCN(c4cc(-c5ccc(C(N)=O)c(F)c5)n5ncnc(N)c45)C3)C2)C1 (stereo partly drawn) [Example 944, (R)—N-(1-(4-Amino-7-(4-carbamoyl-3-fluorophenyl)pyrrolo[2,1-f][1,2,4]triazin-5-yl)piperidin-3-yl)-5-chloro-3-((6-(dimethylamino)spiro[3.3]heptan-2-yl)oxy)thiophene-2-carboxamide]
12 nM | CC(=O)N1CC=C(c2cc(N3CCC[C@@H](NC(=O)c4sc(C#N)cc4O[C@@H]4C[C@H]5CC[C@@H](C4)N5C)C3)c3c(N)ncnn23)C1 [Example 753]
1 nM | COCCn1nc(-c2cc(N3CCC[C@@H](NC(=O)c4sc(Cl)cc4O[C@@H]4C[C@H]5CCC[C@@H](C4)N5C)C3)c3c(N)ncnn23)ccc1=O [Example 971, N—((R)-1-(4-Amino-7-(1-(2-methoxyethyl)-6-oxo-1,6-dihydropyridazin-3-yl)pyrrolo[2,1-f][1,2,4]triazin-5-yl)piperidin-3-yl)-5-chloro-3-(((1R,3s,5S)-9-methyl-9-azabicyclo[3.3.1]nonan-3-yl)oxy)thiophene-2-carboxamide]
4 nM | CN1[C@@H]2CC[C@H]1C[C@H](Oc1cc(Cl)sc1C(=O)N[C@@H]1CCCN(c3cc(-c4ccc(-n5cccn5)cc4)n4ncnc(N)c34)C1)C2 [Example 837, N-((R)-1-(7-(4-(1H-pyrazol-1-yl)phenyl)-4-aminopyrrolo[2,1-f][1,2,4]triazin-5-yl)piperidin-3-yl)-5-chloro-3-(((1R,3s,5S)-8-methyl-8-azabicyclo[3.2.1]octan-3-yl)oxy)thiophene-2-carboxamide]
2.2 nM | Cc1nc(OC2CCC(NC(C)(C)C)CC2)c(C(=O)N[C@@H]2CCCN(c3cc(-c4ccc(S(C)(=O)=O)cn4)n4ncnc(N)c34)C2)s1 (stereo partly drawn) [Example 1026, (R)—N-(1-(4-amino-7-(5-(methylsulfonyl)pyridin-2-yl)pyrrolo[2,1-f][1,2,4]triazin-5-yl)piperidin-3-yl)-4-((4-(tert-butylamino)cyclohexyl)oxy)-2-methylthiazole-5-carboxamide]
0.8 nM | CN1[C@@H]2CC[C@H]1C[C@H](Oc1cc(Cl)sc1C(=O)N[C@@H]1CCCN(c3cc(C4=CCOC4)n4ncnc(N)c34)C1)C2 [Example 926, N—((R)-1-(4-amino-7-(2,5-dihydrofuran-3-yl)pyrrolo[2,1-f][1,2,4]triazin-5-yl)piperidin-3-yl)-5-chloro-3-(((1R,3s,5S)-8-methyl-8-azabicyclo[3.2.1]octan-3-yl)oxy)thiophene-2-carboxamide, TFA salt]
1.7 nM | COc1nc(-c2cc(N3CCC[C@@H](NC(=O)c4sc(C)nc4O[C@H]4CC[C@@H](N(C)C)CC4)C3)c3c(N)ncnn23)ccc1C(N)=O [Example 1057, N—((R)-1-(4-amino-7-(5-carbamoyl-6-methoxypyridin-2-yl)pyrrolo[2,1-f][1,2,4]triazin-5-yl)piperidin-3-yl)-4-(((1S,4S)-4 (dimethylamino)cyclohexyl)oxy)-2-methylthiazole5-carboxamide]
